Values quoted from earlier work as cited in patent publication US20220275055A1, “DRUG TARGET OF IDIOPATHIC PULMONARY FIBROSIS” (National Institute of Biological Sciences, Beijing, priority 2019, published 2022).

Conditions: idiopathic pulmonary fibrosis (IPF); background statement

SMILES	survival time
COC(=O)c1ccc2c(c1)NC(=O)/C2=C(\Nc1ccc(N(C)C(=O)CN2CCN(C)CC2)cc1)c1ccccc1 [nintedanib]	failed to show significantly increased survival time
Cc1ccc(=O)n(-c2ccccc2)c1 [pirfenidone]	failed to show significantly increased survival time
